The results in this text go back to patent publication US10745382B2 (BRISTOL-MYERS SQUIBB COMPANY, priority 2015, dated 2020).

pIC50: −log10 of the molar value.

The target of the experiment is T1, PD-1/PD-L1 (Homo sapiens, UniProt Q9NZQ7).
T1 construct: made in house; host or cells: HEK293T
T1 sequence (Q9NZQ7 with tags, fused parts or gaps): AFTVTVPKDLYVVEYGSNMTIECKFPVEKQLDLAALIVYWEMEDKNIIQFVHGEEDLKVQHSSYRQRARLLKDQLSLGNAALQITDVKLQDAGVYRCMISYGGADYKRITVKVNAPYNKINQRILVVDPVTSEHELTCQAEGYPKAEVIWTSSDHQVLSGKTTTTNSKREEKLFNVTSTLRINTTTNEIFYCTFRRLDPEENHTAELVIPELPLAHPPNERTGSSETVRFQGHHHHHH
Description: PD-1/PD-L1 Homogenous Time-Resolved Fluorescence (HTRF) binding assay. The following applies: PD-L1-His 10 nM, PD-1-Ig 20 nM; value given as range class; read-out: Range or IC50. The gist of the method:
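Binding measured in dPBS with 0.1% BSA and 0.05% Tween-20, detected by HTRF with europium cryptate anti-Ig (1 nM final) and APC anti-His (20 nM final) added over the binding reaction. Counter-assays used human PD-1-Ig/PD-L2-His (20 and 5 nM) and CD80-His/PD-L1-Ig (100 and 10 nM).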
A general note: TR-FRET usually uses a lanthanide donor and a delayed reading to cut background.
What is called pIC50 is −log10 of the IC50, conventionally taken in molar units. As to `COc1cc(CCc2cccc(-c3cccc(OCCCN4CC[C@@H](O)C4)c3C)c2C)c(Cl)cc1CN1CCCC[C@H]1C(=O)O` [Example 4518, (S)-1-(5-chloro-4-(2-(3′-(3-((R)-3-hydroxypyrrolidin-1-yl)propoxy)-2,2′-dimethyl-[1,1′-biphenyl]-3-yl)ethyl)-2-methoxybenzyl)piperidine-2-carboxylic Acid], the negative-log IC50 (pIC50) was 8.00 to 9.68.

For `COc1cc(NC(=O)c2cccc(-c3cccc(OCCCN4CC[C@@H](O)C4)c3C)c2C)c(Cl)cc1C(=O)N1CCCC[C@H]1C(=O)O` [Example 4519, (S)-1-(5-chloro-4-(3′-(3-((R)-3-hydroxypyrrolidin-1-yl)propoxy)-2,2′-dimethyl-[1,1′-biphenyl]-3-ylcarboxamido)-2-methoxybenzoyl)piperidine-2-carboxylic Acid], the negative-log IC50 (pIC50) is 5.70 to 7.00.

As for `Cc1c(COc2cc(OCc3cc(F)cc(F)c3)c(CNC(C)(CO)CO)cc2Cl)cccc1-c1cccc(OCCCN2CC[C@@H](O)C2)c1C` [Example 4520, (R)-2-((5-chloro-2-((3,5-difluorobenzyl)oxy)-4-((3′-(3-(3-hydroxypyrrolidin-1-yl)propoxy)-2,2′-dimethyl-[1,1′-biphenyl]-3-yl)methoxy)benzyl)amino)-2-methylpropane-1,3-diol], the pIC50 was 8.00 to 9.68.

`Cc1c(COc2cc(OCc3cc(F)cc(F)c3)c(CN3CCCC[C@H]3C(=O)O)cc2Cl)cccc1-c1cccc(OCCCN2CC[C@@H](O)C2)c1C` [Example 4521, (S)-1-(5-chloro-2-((3,5-difluorobenzyl)oxy)-4-((3′-(3-((R)-3-hydroxypyrrolidin-1-yl)propoxy)-2,2′-dimethyl-[1,1′-biphenyl]-3-yl)methoxy)benzyl)piperidine-2-carboxylic Acid]: the pIC50 was 8.00 to 9.68.

With `Cc1c(COc2cc(OCc3cc(F)cc(F)c3)c(CO)cc2Cl)cccc1-c1cccc(OCCCN2CC[C@@H](O)C2)c1C` [Example 4522, (R)-1-(3-((3′-((2-chloro-5-((3,5-difluorobenzyl)oxy)-4-(hydroxymethyl)phenoxy)methyl)-2,2′-dimethyl-[1,1′-biphenyl]-3-yl)oxy)propyl)pyrrolidin-3-ol], the negative-log IC50 (pIC50) was 7.00 to 8.00.

Regarding `Cc1cc(OCc2cccc(-c3cccc(OCCCN4CC[C@@H](O)C4)c3C)c2C)c(Cl)cc1CN1CCCC[C@H]1C(=O)O` [Example 4523, (S)-1-(5-chloro-4-((3′-(3-((R)-3-hydroxypyrrolidin-1-yl)propoxy)-2,2′-dimethyl-[1,1′-biphenyl]-3-yl)methoxy)-2-methylbenzyl)piperidine-2-carboxylic Acid], the pIC50 is 8.00 to 9.68.

In the case of `Cc1c(COc2ccc(CN3CCCC[C@H]3C(=O)O)c(C)c2Cl)cccc1-c1cccc(OCCCN2CC[C@@H](O)C2)c1C` [Example 4524, (S)-1-(3-chloro-4-((3′-(3-((R)-3-hydroxypyrrolidin-1-yl)propoxy)-2,2′-dimethyl-[1,1′-biphenyl]-3-yl)methoxy)-2-methylbenzyl)piperidine-2-carboxylic Acid], the pIC50 is 7.00 to 8.00.

“tert-butyl (S)-3-(((3′-((2-chloro-5-((5-cyanopyridin-3-yl)methoxy)-4-(((1,3-dihydroxypropan-2-yl)amino)methyl)phenoxy)methyl)-2,2′-dimethyl-[1,1′-biphenyl]-3-yl)oxy)methyl)pyrrolidine-1-carboxylate [Example 2322]”: the pIC50 was 7.00 to 8.00.
